From patent US20110294842A9, “SPIRO (FURO [3, 2-C] PYRIDINE-3-3' -INDOL) -2' (1'H)-ONE DERIVATIVES AND RELATED COMPOUNDS FOR THE TREATMENT OF SODIUM-CHANNEL MEDIATED DISEASES, SUCH AS PAIN” (Xenon Pharmaceuticals Inc., priority 2006, published 2011)

Legend:
sodium channel = test: Guanidine influx assay (in vitro); type: cell-based, human or rat; details: known cell line that expresses a sodium channel; read-out: IC50 Activity Level
Text: This example describes an in vitro assay for testing and profiling test agents against human or rat sodium channels stably expressed in cells of either an endogenous or recombinant origin. The assay is also useful for determining the IC-50 of a sodium channel blocking compound. The assay is based on the guanidine flux assay described by Reddy, N. L., et al., J Med Chem (1998), 41(17):3298-302.
The guanidine influx assay is a radiotracer flux assay used to determine ion flux activity of sodium channels in a high-throughput microplate-based format. The assay uses ^14C-guanidine hydrochloride in combination with various known sodium channel modulators, to assay the potency of test agents. Potency is determined by an IC-50 calculation. Selectivity is determined by comparing potency of the compound for the channel of interest to its potency against other sodium channels (also called ‘selectivity profiling’).
Each of the test agents is assayed against cells that express the channels of interest. Voltage gated sodium channels are either TTX sensitive or insensitive. This property is useful when evaluating the activities of a channel of interest when it resides in a mixed population with other sodium channels. The following Table 1 summarizes cell lines useful in screening for a certain channel activity in the presence or absence of TTX.
Cells expressing the channel of interest are grown according to the supplier or in the case of a recombinant cell in the presence of selective growth media such as G418 (Gibco/Invitrogen). The cells are disassociated from the culture dishes with an enzymatic solution (1×) Trypsin/EDTA (Gibco/Invitrogen) and analyzed for density and viability using haemocytometer (Neubauer). Disassociated cells are washed and resuspended in their culture media then plated into Scintiplates (Beckman Coulter Inc.) (approximately 100,000 cells/well) and incubated at 37° C./5% CO2 for 20-24 hours. After an extensive wash with Low sodium HEPES-buffered saline solution (LNHBSS) (150 mM Choline Chloride, […] (Sigma), 1 mM Calcium Chloride, 5 mM Potassium Chloride, 1 mM Magnesium Chloride, 10 mM Glucose) agents diluted with LNHBSS are added to each well. (Varying concentrations of test agent may be used). The activation/radiolabel mixture contains aconitine (Sigma), and ^14C-guanidine hydrochloride (ARC).
After loading the cells with test agent and activation/radiolabel mixture, the Scintiplates are incubated at ambient temperature. Following the incubation, the Scintplates are extensively washed with LNHBSS supplemented with guanidine (Sigma). The Scintiplates are dried and then counted using a Wallac MicroBeta TriLux (Perkin-Elmer Life Sciences). The ability of the test agent to block sodium channel activity is determined by comparing the amount of ^14C-guanidine present inside the cells expressing the different sodium channels.
IC-50 value of a test agent for a specific sodium channel may be determined using the above general method. IC-50 may be determined using a 3, 8, 10, 12 or 16 point curve in duplicate or triplicate with a starting concentration of 1, 5 or 10 μM diluted serially with a final concentration reaching the sub-nanomolar, nanomolar and low micromolar ranges. Typically the mid-point concentration of test agent is set at 1 μM, and sequential concentrations of half dilutions greater or smaller are applied (e.g. 0.5 μM; 5 μM and 0.25 μM; 10 μM and 0.125 μM; 20 μM etc.). The IC-50 curve is calculated using the 4 Parameter Logistic Model or Sigmoidal Dose-Response Model formula (fit=(A+((B−A)/(1+((C/×)̂ D)))).
The Synthetic Example numbers provided in Table 2 correspond to the Synthetic Examples herein: […]

CHO-K1 (Nav1.4) = type: cell-based, Chinese Hamster
PC12 (Nav1.2) = PC12 (Nav1.2) (Rattus norvegicus, UniProt P04775)
PC12 (Nav1.2), sequence (P04775 whole entry, looked up): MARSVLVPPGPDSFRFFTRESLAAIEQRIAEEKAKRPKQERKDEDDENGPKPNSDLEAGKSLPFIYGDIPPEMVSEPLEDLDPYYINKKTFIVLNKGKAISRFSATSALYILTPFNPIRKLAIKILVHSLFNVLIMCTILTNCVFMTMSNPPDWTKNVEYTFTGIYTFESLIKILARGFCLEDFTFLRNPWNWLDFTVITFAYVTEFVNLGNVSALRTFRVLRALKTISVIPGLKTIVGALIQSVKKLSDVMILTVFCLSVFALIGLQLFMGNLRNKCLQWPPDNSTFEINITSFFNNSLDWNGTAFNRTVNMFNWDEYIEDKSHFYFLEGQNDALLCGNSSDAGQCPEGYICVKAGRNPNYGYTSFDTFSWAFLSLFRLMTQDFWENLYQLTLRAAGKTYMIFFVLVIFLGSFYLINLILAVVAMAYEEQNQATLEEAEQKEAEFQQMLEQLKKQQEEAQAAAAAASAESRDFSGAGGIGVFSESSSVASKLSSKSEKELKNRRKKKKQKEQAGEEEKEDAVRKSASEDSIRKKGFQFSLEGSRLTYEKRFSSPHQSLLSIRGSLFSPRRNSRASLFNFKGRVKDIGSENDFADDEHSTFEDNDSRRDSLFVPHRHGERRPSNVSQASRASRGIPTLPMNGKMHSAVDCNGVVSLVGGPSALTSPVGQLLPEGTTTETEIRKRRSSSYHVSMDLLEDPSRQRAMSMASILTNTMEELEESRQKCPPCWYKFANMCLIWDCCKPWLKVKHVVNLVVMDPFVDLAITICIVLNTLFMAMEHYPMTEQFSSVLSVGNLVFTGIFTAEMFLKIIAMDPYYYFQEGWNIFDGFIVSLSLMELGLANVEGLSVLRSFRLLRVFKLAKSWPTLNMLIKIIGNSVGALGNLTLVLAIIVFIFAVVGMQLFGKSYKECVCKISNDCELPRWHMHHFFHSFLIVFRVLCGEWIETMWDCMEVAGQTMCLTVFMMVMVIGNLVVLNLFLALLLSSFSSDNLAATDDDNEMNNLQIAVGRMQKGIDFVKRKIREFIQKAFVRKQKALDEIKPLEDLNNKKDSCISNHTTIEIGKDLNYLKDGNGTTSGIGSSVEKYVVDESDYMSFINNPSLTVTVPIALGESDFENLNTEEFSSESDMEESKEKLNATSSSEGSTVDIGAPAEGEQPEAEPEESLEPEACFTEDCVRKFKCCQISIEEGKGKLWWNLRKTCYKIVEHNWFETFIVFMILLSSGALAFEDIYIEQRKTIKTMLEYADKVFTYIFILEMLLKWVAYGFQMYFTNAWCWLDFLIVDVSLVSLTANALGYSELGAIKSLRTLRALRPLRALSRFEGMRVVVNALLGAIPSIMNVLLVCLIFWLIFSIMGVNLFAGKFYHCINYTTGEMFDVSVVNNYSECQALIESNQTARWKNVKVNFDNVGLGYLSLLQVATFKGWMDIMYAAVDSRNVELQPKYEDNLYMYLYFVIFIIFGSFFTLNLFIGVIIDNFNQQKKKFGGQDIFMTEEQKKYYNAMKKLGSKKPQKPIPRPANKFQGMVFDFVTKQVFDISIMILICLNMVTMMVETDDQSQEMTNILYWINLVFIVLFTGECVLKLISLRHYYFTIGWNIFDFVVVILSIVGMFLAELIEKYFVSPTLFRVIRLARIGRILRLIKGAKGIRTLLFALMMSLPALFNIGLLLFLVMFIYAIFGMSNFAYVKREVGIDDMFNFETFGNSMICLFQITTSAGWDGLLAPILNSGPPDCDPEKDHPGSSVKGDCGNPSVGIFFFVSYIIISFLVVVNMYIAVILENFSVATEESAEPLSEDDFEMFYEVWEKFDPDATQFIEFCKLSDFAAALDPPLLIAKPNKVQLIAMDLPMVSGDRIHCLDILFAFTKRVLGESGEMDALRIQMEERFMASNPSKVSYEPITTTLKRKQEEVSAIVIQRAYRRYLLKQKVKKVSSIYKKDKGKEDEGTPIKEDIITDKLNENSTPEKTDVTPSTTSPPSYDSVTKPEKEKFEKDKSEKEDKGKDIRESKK

SK-N-BE2C (NaV1.8) = SK-N-BE2C (NaV1.8) (Homo sapiens, UniProt Q9Y5Y9); type: cell-based
SK-N-BE2C (NaV1.8), sequence (Q9Y5Y9 whole entry, looked up): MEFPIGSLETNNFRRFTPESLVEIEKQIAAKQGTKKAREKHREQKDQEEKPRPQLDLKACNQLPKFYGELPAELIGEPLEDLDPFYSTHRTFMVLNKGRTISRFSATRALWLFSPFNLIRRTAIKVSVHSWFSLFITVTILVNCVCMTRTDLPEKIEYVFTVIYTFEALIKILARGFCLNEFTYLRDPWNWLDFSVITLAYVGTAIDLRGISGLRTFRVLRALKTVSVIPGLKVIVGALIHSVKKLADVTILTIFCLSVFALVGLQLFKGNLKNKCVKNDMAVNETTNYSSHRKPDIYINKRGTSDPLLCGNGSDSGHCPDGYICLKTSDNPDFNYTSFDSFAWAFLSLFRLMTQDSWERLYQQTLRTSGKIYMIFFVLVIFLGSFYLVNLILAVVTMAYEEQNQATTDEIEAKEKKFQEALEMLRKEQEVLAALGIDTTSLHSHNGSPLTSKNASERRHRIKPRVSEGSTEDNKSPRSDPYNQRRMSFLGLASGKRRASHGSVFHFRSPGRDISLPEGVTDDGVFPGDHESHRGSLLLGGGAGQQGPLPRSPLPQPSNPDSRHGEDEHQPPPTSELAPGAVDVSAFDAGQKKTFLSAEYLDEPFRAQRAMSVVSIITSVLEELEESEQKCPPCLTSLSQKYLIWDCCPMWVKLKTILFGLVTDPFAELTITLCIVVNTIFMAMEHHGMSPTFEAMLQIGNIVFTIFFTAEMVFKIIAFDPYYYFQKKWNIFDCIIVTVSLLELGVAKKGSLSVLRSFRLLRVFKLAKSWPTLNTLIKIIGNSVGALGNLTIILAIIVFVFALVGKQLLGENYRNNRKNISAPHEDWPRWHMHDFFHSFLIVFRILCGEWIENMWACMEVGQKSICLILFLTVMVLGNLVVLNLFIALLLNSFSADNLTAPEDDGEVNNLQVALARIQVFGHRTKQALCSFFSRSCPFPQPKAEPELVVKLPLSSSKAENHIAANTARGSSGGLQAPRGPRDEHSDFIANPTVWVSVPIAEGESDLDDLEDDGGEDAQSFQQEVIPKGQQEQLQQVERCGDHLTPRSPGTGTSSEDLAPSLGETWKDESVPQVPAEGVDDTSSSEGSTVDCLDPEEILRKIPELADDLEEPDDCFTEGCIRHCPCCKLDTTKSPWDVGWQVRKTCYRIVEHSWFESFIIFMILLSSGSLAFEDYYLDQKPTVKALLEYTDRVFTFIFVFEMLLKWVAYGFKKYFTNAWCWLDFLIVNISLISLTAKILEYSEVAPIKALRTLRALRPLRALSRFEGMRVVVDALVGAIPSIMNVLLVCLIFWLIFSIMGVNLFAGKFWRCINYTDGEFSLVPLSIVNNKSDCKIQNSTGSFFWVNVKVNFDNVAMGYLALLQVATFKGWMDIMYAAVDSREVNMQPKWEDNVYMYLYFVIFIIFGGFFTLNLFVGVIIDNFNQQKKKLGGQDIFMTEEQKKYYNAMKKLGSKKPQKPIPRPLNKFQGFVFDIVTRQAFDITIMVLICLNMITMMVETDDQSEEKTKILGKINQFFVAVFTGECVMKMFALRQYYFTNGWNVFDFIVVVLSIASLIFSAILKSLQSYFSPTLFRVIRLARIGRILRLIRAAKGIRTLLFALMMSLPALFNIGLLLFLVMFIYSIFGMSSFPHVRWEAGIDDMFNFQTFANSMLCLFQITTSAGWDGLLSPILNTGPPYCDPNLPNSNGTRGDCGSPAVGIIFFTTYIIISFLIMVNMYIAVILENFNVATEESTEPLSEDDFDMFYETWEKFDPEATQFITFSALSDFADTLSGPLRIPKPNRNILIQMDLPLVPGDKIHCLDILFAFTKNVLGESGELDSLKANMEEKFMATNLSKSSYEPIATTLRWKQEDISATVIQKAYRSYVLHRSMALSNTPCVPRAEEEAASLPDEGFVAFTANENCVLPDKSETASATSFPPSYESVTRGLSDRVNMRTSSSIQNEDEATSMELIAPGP

L6 (Nav1.4 and 1.5) = type: cell-based, rat

Compound	IC50 (sodium channel) [nM]	melting point [°C]	further results
CCCCCN1C(=O)C2(COc3ccncc32)c2ccccc21 (stereo not shown) [Example 1]	100 to 1000		
CCCCCN1C(=O)C2(COc3ccncc32)c2ccccc21 (stereo not shown) [Example 2]	≥ 1000		
CCCCCN1C(=O)C2(COc3cc[nH]c(=O)c32)c2ccccc21 (stereo not shown) [Example 3]	≥ 1000		
COc1ccc2c(n1)C1(CO2)C(=O)N(Cc2ccc(C(F)(F)F)o2)c2cccc(Br)c21 (stereo not shown) [Example 4]	10 to 100		
COc1ccc2c(n1)C1(CO2)C(=O)N(Cc2ccc(C(F)(F)F)o2)c2ccccc21 (stereo not shown) [Example 5]	100 to 1000		
O=C1N(Cc2ccc(C(F)(F)F)o2)c2ccccc2C12COc1cc3c(nc12)OCO3 (stereo not shown) [Example 8]	1 to 10		
COc1ccc2c(n1)C1(CO2)C(=O)N(Cc2ccc(C(F)(F)F)o2)c2ccc(F)cc21 (stereo not shown) [Example 10]	≥ 1000		
COc1ccc2c(n1)C1(CO2)C(=O)N(Cc2ccc(C(F)(F)F)o2)c2cccc(Cl)c21 (stereo not shown) [Example 11]	100 to 1000		
COc1ccc2c(n1)C1(CO2)C(=O)Nc2cccc(Br)c21 (stereo not shown) [Example 12]	100 to 1000		
COc1ccc2c(n1)C1(CO2)C(=O)Nc2ccccc21 (stereo not shown) [Example 13]	≥ 1000	199 to 200	
COc1ccc2c(n1)C1(CO2)C(=O)N(Cc2ccc(Cl)s2)c2ccccc21 (stereo not shown) [Example 15]	10 to 100		
COc1ccc2c(n1)C1(CO2)C(=O)N(Cc2csc(C(C)C)n2)c2ccccc21 (stereo not shown) [Example 16]	10 to 100	136 to 138	
COc1ccc2c(n1)C1(CO2)C(=O)N(Cc2ccccn2)c2ccccc21 (stereo not shown) [Example 17]	100 to 1000		
COc1ccc2c(n1)C1(CO2)C(=O)N(CC(=O)Nc2ccccc2F)c2ccccc21 (stereo not shown) [Example 18]	100 to 1000		
COc1ccc2c(n1)C1(CO2)C(=O)N(Cc2ncc(Cl)n2C)c2ccccc21 (stereo not shown) [Example 19]	100 to 1000	169 to 171	
COc1ccc2c(n1)C1(CO2)C(=O)N(CC2CCN(C)CC2)c2ccccc21 (stereo not shown) [Example 22]	≥ 1000	58 to 62	
COc1cc2c(cn1)OCC21C(=O)N(Cc2ccc(C(F)(F)F)o2)c2ccccc21 (stereo not shown) [Example 23]	1 to 10		
COc1cc2c(cn1)OCC21C(=O)N(C(c2ccccc2)c2ccccc2)c2ccccc21 (stereo not shown) [Example 24]	≥ 1000		
COc1cc2c(cn1)OCC21C(=O)Nc2ccccc21 (stereo not shown) [Example 25]	100 to 1000		
COc1cc2c(cn1)OCC21C(=O)N(CC2CCOCC2)c2ccccc21 (stereo not shown) [Example 26]	100 to 1000		
COc1cc2c(cn1)OCC21C(=O)N(C[C@@H]2CCCO2)c2ccccc21 (stereo partly shown) [Example 27]	10 to 100		
COc1cc2c(cn1)OCC21C(=O)N(C[C@H]2CCCO2)c2ccccc21 (stereo partly shown) [Example 28]	10 to 100		
COc1ccc2c(n1)C1(CO2)C(=O)N(Cc2ccc(C(F)(F)F)o2)c2ccccc21 (stereo not shown) [Synthetic Example 5, 5-methoxy-1′-{[5-(trifluoromethyl)-2-furyl]methyl}spiro[furo[3,2-b]pyridine-3,3′-indol]-2′(1′H)-one]		145 to 147	
O=C1N(Cc2ccc(C(F)(F)F)o2)c2ccccc2C12COc1ccc(=O)[nH]c12 (stereo not shown) [Synthetic Example 7, 1′-{[5-(trifluoromethyl)-2-furyl]methyl}spiro[furo[3,2-b]pyridine-3,3′-indole]-2′,5(1′H,4H)-dione]		175 to 177	
O=C1N(Cc2ccc(C(F)(F)F)o2)c2ccccc2C12COc1cc3c(nc12)OCO3 (stereo not shown) [Synthetic Example 8, 1′-{[5-(trifluoromethyl)-2-furyl]methyl}spiro[1,3-dioxolo[4,5-b]furo[2,3-e]pyridine-5,3′-indol]-2′(1′H)-one]		175 to 177	
COc1ccc2c(n1)C1(CO2)C(=O)N(Cc2ccc(C(F)(F)F)o2)c2ccc(F)cc21 (stereo not shown) [Synthetic Example 10, 5′-fluoro-5-methoxy-1′-{[5-(trifluoromethyl)-2-furyl]methyl}spiro[furo[3,2-b]pyridine-3,3′-indol]-2′(1′H)-one]		158 to 160	
COc1ccc2c(n1)C1(CO2)C(=O)Nc2cccc(Br)c21 (stereo not shown) [Synthetic Example 12, 4′-bromo-5-methoxyspiro[furo[3,2-b]pyridine-3,3′-indol]-2′(1′H)-one]		265 to 268	
COc1cc2c(cn1)OCC21C(=O)Nc2ccccc21 (stereo not shown) [Synthetic Example 25, 5-methoxyspiro[furo[2,3-c]pyridine-3,3′-indol]-2′(1′H)-one]		231 to 232	
COc1cc2c(cn1)OCC21C(=O)N(CC2CCOCC2)c2ccccc21 (stereo not shown) [Synthetic Example 26, 5-methoxy-1′-(tetrahydro-2H-pyran-4-ylmethyl)spiro[furo[2,3-c]pyridine-3,3′-indol]-2′(1′H)-one]		84 to 85	
NC1=N[C@H](O)[C@H]2[C@H]3O[C@]4(O)O[C@@H]([C@@H](O)[C@@]2(N1)[C@@H]4O)[C@]3(O)CO [TTX, tetrodotoxin]			block of [14C] guanidine influx (CHO-K1 (Nav1.4)): Guanidine influx was completely; block of [14C] guanidine influx (PC12 (Nav1.2)): Guanidine influx was completely; block of [14C] guanidine influx (SK-N-BE2C (NaV1.8)): TTX partially blocked influx; block of [14C] guanidine influx (L6 (Nav1.4 and 1.5)): partially blocked by TTX (Nav1.5
